What is called IC50 is the concentration that gives 50% inhibition.

Series [1] in a line: Clearance in rat liver microsomes at 0.5 uM preincubated for 5 mins followed by NADPH addition measured after 30 mins by MSMS analysis. Type of series: ADME, microsome. As to conditions: read-out: CLH. On the technique in general: Liver microsomes are a subcellular fraction often used to study metabolism.
A short description of series [2]: Clearance in human liver microsomes at 0.5 uM preincubated for 5 mins followed by NADPH addition measured after 30 mins by MSMS analysis. Type of series: ADME, microsome. The settings on record: read-out: CLH.
Series [3] concerns the target cAMP and cAMP-inhibited cGMP 3',5'-cyclic phosphodiesterase 10A (Homo sapiens, UniProt Q9Y233). Description: Inhibition of recombinant PDE10A (unknown origin) using cAMP/cGMP as substrate incubated for 60 mins by HTRF assay. Background: TR-FRET usually uses a lanthanide donor and a delayed reading to cut background.

cAMP and cAMP-inhibited cGMP 3',5'-cyclic phosphodiesterase 10A, sequence (Q9Y233 whole entry): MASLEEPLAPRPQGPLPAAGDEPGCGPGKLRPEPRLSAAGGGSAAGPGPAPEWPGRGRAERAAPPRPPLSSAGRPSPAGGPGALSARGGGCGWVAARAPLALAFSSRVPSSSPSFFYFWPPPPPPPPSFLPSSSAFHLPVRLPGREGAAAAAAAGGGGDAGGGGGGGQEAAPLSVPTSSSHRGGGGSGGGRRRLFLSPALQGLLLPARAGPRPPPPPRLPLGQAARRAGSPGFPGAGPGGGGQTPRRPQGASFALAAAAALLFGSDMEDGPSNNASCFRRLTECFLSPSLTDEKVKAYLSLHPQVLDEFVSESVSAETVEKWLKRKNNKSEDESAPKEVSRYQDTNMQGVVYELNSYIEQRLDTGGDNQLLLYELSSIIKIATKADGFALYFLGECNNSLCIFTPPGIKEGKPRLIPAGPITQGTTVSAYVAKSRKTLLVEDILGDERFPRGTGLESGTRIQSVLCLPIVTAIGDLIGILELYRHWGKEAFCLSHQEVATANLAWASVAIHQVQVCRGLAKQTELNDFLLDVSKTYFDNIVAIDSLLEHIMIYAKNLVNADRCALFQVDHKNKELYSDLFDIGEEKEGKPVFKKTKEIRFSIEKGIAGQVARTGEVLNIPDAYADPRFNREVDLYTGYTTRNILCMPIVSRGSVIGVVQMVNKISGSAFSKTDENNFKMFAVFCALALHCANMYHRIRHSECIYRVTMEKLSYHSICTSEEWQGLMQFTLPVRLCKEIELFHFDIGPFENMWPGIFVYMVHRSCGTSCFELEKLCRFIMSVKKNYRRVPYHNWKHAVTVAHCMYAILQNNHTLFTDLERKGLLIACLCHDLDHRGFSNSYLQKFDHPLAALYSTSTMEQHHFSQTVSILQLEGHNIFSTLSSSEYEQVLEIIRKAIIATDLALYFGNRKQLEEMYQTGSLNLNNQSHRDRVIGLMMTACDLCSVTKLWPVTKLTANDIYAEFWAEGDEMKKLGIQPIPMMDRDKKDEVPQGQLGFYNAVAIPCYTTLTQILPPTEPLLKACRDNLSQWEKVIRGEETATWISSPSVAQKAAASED

As to `Cn1cc(-c2ccncc2)c(-c2ccc(C#Cc3ccccn3)cc2)n1`, the microsomal CLint at 0.5 µM in series [1] and in series [2] was under 100 µL/min/mg in each case. Moreover, the IC50 in series [3] is under 100 nM.
Take `Cc1cccc(C#Cc2ccc(-c3nn(C)cc3-c3cn[nH]c3)cc2)n1`: the microsomal CLint at 0.5 µM in series [1] and in series [2] was under 100 µL/min/mg in each case. Moreover, the IC50 in series [3] is 200 to 500 nM.
As for `Cn1cc(-c2ccncc2)c(-c2ccc(C#Cc3nccn3C)cc2)n1`, the microsomal CLint at 0.5 µM in series [1] and in series [2] was under 100 µL/min/mg each time. In addition, in series [3], the IC50 is under 100 nM.
For the compound `Cn1cc(-c2ccncc2)c(-c2ccc(C#Cc3ccc4ccccc4n3)cc2)n1`, the microsomal CLint at 0.5 µM in series [1] and in series [2] was under 100 µL/min/mg throughout. Further, the IC50 in series [3] is under 100 nM.
`COc1cc(-c2nn(C)cc2-c2ccncc2)ccc1C#Cc1cccc(C)n1`: the figures for the microsomal CLint at 0.5 µM in series [1] and in series [2] were 100 to 200 µL/min/mg and under 100 µL/min/mg, respectively. Besides, the IC50 in series [3] is under 100 nM.
For `Cn1cc(-c2ccncc2)c(-c2ccc(C#Cc3nccs3)cc2)n1` the same measures were under 100 µL/min/mg, under 100 µL/min/mg and 100 to 200 nM.

(Values after ChEMBL document CHEMBL4196227, “Potential of PDE10A Inhibitors as Treatment for Schizophrenia and Other Neurological Disorders” (ACS Med Chem Lett, 2018).)
